Measurements as given in patent US10544134B2, “4-substituted coumarin derivatives and preparation methods and uses thereof” (SI CHUAN UNIVERSITY, priority 2015, dated 2020).
Where two headings read alike, the source gives them in different places.

Key:
Experiment in all cases: Tumor cell proliferation inhibitory activity test in vitro (MTT)
[1] = tested on: colon carcinoma cell HCT116; assay type: cell-based, human; settings: read-out: IC50 of compounds for tumor cells, Activity, HCT116
Source text: (§1) Human non-small cell lung cancer cell line NCI-H460, human small cell lung cancer cell line NCI-H446, human hepatocellular carcinoma cell strain HepG2, human colon carcinoma cell strain HCT116, human prostate cancer PC-3, human melanoma A375, colon carcinoma cell HCT-8, breast cancer cell MCF-7, ovarian cancer cell A2780s, drug-resistant ovarian cancer cell A2780/T, drug-resistant colon cancer cell HCT-8/T and doxorubicin-resistant breast cancer cell MCF-7/ADR are obtained from American Type Culture Collection (ATCC) and are cultured and preserved by the cell bank of State Key Laboratory of Biotherapy of Sichuan University. Above tumor cells are routinely cultured in DMEM culture medium containing 10% fetal bovine serum, 100 U·mL-1 penicillin and 100 mg·L−1 streptomycin, and in an incubator at 37° C. and with saturated humidity and 5% CO2 concentration.
(§2) Fill diluted cell suspension in the 96-well plate with 1000-10000 cells per well and incubate it in CO2 incubator overnight.
(§3) Replace with new medium containing various concentrations of compounds to be tested for the test group and replace with fresh medium with equal volume for the control group, each group is arranged with 5 parallel wells and incubated in an incubator at 37° C. and with 5% CO2 concentration.
(§4) Discard the supernatant after 72 hours, add 200 μL freshly prepared serum-free medium containing 0.2 mg/mL MTT into each well, continue to incubate at 37° C. for 1-4 hours, then stop incubation, carefully remove the culture supernatant in the wells and add 200 uL DMSO (dimethyl sulfoxide), oscillate with a miniature ultrasonic oscillator for 15-20 minutes to make the crystal fully dissolved and mixed. Determine OD values using a microplate reader at 570 nm with a reference wavelength of 450 nm.
(§5) Draw curves based on the growth inhibition rate for tumor cells of the same sample with different concentrations to get dose-response curve, so as to calculate IC50. Repeat each test for 3 times, measure IC50 (μM) or nanomolor concentration (nM) of compounds in different tumor cells.

[2] = tested on: hepatocellular carcinoma cell HEPG2; assay type: cell-based, human; settings: read-out: IC50 of compounds for tumor cells, Activity, HEPG2
Source text: as §1, §2, §3, §4, §5

melanoma A375 = assay type: cell-based, human; settings: read-out: IC50 of compounds for tumor cells, Activity, A375
Source text: as §1, §2, §3, §4, §5

[3] = tested on: non-small cell lung cancer cell line NCI-H460; assay type: cell-based, human; settings: read-out: IC50 of compounds for tumor cells, Activity, H460
Source text: as §1, §2, §3, §4, §5

prostate cancer PC-3 = assay type: cell-based, human; settings: 72 hours, read-out: IC50 of compounds for tumor cells, Activity, PC-3
Source text: as §1, §2, §3, §4, §5

breast cancer cell MCF-7 = assay type: cell-based; settings: read-out: IC50 of compounds for tumor cells, Activity, MCF-7
Source text: as §1, §2, §3, §4, §5

[4] = Homo sapiens, HCT-116, 72 hours
[5] = Homo sapiens, NCI-H460, 72 hours

| Molecule | IC50 ([1]; 72 hours) [µM] | IC50 ([2]; 72 hours) [µM] | IC50 (melanoma A375; 72 hours) [µM] | IC50 ([3]; 72 hours) [µM] | IC50 (prostate cancer PC-3) [µM] | IC50 (breast cancer cell MCF-7; 72 hours) [µM] | IC50 [1, 4] [µM] | IC50 ([2]; Homo sapiens, HepG2, 72 hours) [µM] | IC50 (melanoma A375; Homo sapiens, A-375, 72 hours) [µM] | IC50 [3, 5] [µM] | IC50 (prostate cancer PC-3; Homo sapiens) [µM] | IC50 (breast cancer cell MCF-7; Homo sapiens, MCF7, 72 hours) [µM] |
| --- | --- | --- | --- | --- | --- | --- | --- | --- | --- | --- | --- | --- |
| 4-(N-methyl-N-(4-methoxy-3-(2-methylphenyl-methoxycarbonyl)-benzene)-amino) Coumarin [COUM-63] | 0.1 to 5 | 0.1 to 5 | 0.1 to 5 | 0.1 to 5 | 0.1 to 5 | 0.1 to 5 |  |  |  |  |  |  |
| 4-(N-methyl-N-(4-methoxy-3-(2-pyrrole ethoxy)-benzene)-amino) Coumarin [COUM-52] | 0.1 to 5 | 0.1 to 5 | 0.1 to 5 | 0.1 to 5 | 0.1 to 5 | 0.1 to 5 |  |  |  |  |  |  |
| 4-(N-methyl-N-(4-methoxy-3-(3-chlorophenyl-methoxycarbonyl)-benzene)-amino) Coumarin [COUM-62] | 0.1 to 5 | 0.1 to 5 | 0.1 to 5 | 0.1 to 5 | 0.1 to 5 | 0.1 to 5 |  |  |  |  |  |  |
| 4-(N-methyl-N-(4-methoxy-3-(4-fluorobenzene) methanesulfonate-benzene)-amino) Coumarin [COUM-56] | 0.1 to 5 | 0.1 to 5 | 0.1 to 5 | 0.1 to 5 | 0.1 to 5 | 0.1 to 5 |  |  |  |  |  |  |
| 4-(N-methyl-N-(4-methoxy-3-((4-ethylbenzene) methoxycarbonyl)-benzene)-amino) Coumarin [COUM-53] | 0.1 to 5 | 0.1 to 5 | 0.1 to 5 | 0.1 to 5 | 0.1 to 5 | 0.1 to 5 |  |  |  |  |  |  |
| 4-(N-methyl-N-(4-methoxy-3-(furan-2-yl-methoxycarbonyl)-benzene)-amino) Coumarin [COUM-61] | 0.1 to 5 | 0.1 to 5 | 0.1 to 5 | 0.1 to 5 | 0.1 to 5 | 0.1 to 5 |  |  |  |  |  |  |
| O=c1cc(-c2ccc(-c3cccc(Cl)c3)s2)c2ccccc2o1 [COUM-8, 4-(5-(3-chlorobenzene)thiophene-2-yl)-coumarin] |  |  |  |  |  |  | > 5 | > 5 | > 5 | > 5 | > 5 | > 5 |
| COc1ccc2c(-c3ccc(-c4ccc5c(c4)OCO5)s3)cc(=O)oc2c1 [COUM-11, 4-(5-(3,4-(methylenedioxy)benzene)thiophene-2-yl)-7-methoxyl-coumarin] |  |  |  |  |  |  | > 5 | > 5 | > 5 | > 5 | > 5 | > 5 |
| COc1ccc2c(-c3ccc(-c4ccccc4OC)s3)cc(=O)oc2c1 [COUM-12, 4-(5-(2-methoxybenzene)thiophene-2-yl)-7-methoxyl-coumarin] |  |  |  |  |  |  | > 5 | > 5 | > 5 | > 5 | > 5 | > 5 |
| CCOC(=O)c1cccc(-c2ccc(-c3cc(=O)oc4cc(OC)ccc34)s2)c1 [COUM-13, 4-(5-(3-ethoxycarbonylbenzene)thiophene-2-yl)-7-methoxyl-coumarin] |  |  |  |  |  |  | > 5 | > 5 | > 5 | > 5 | > 5 | > 5 |
| COc1ccc(-c2ccc(-c3cc(=O)oc4ccccc34)o2)cc1 [COUM-15, 4-(5-(4-methoxyphenyl)furan-2-yl)-coumarin] |  |  |  |  |  |  | > 5 | > 5 | > 5 | > 5 | > 5 | > 5 |
| CS(=O)(=O)c1ccc(-c2ccc(-c3cc(=O)oc4ccccc34)o2)cc1 [COUM-16, 4-(5-(4-methylsulfonylphenyl)furan-2-yl)-coumarin] |  |  |  |  |  |  | > 5 | > 5 | > 5 | > 5 | > 5 | > 5 |
| Cc1ccc(-c2ccc(-c3cc(=O)oc4ccccc34)o2)cc1 [COUM-17, 4-(5-(4-methylphenyl)furan-2-yl)-coumarin] |  |  |  |  |  |  | > 5 | > 5 | > 5 | > 5 | > 5 | > 5 |
| COc1ccccc1-c1ccc(-c2cc(=O)oc3ccccc23)o1 [COUM-18, 4-(5-(2-methoxyphenyl)furan-2-yl)-coumarin] |  |  |  |  |  |  | > 5 | > 5 | > 5 | > 5 | > 5 | > 5 |
| O=c1cc(-c2ccc(-c3ccccc3)o2)c2ccccc2o1 [COUM-19, 4-(5-phenylfuran-2-yl)-coumarin] |  |  |  |  |  |  | > 5 | > 5 | > 5 | > 5 | > 5 | > 5 |
| COc1cc(-c2ccc(-c3cc(=O)oc4ccccc34)o2)cc(OC)c1OC [COUM-20, 4-(5-(3,4,5-trimethoxyphenyl)furan-2-yl)-coumarin] |  |  |  |  |  |  | > 5 | > 5 | > 5 | > 5 | > 5 | > 5 |
| O=c1cc(-c2ccc(-c3ccc(Cl)cc3)o2)c2ccccc2o1 [COUM-21, 4-(5-(4-chlorobenzene)furan-2-yl)-coumarin] |  |  |  |  |  |  | > 5 | > 5 | > 5 | > 5 | > 5 | > 5 |
| O=c1cc(-c2ccc(-c3cccc(Cl)c3)o2)c2ccccc2o1 [COUM-22, 4-(5-(3-chlorobenzene)furan-2-yl)-coumarin] |  |  |  |  |  |  | > 5 | > 5 | > 5 | > 5 | > 5 | > 5 |
| COc1ccc2c(-c3ccc(-c4cc(OC)c(OC)c(OC)c4)o3)cc(=O)oc2c1 [COUM-23, 4-(5-(3,4,5-trimethoxybenzene)furan-2-yl)-7-methoxyl-coumarin] |  |  |  |  |  |  | > 5 | > 5 | > 5 | > 5 | > 5 | > 5 |
| COc1ccc2c(-c3ccc(-c4ccc(C)cc4)o3)cc(=O)oc2c1 [COUM-24, 4-(5-(4-methylbenzene)furan-2-yl)-7-methoxyl-coumarin] |  |  |  |  |  |  | > 5 | > 5 | > 5 | > 5 | > 5 | > 5 |
| COc1ccc2c(-c3ccc(-c4ccc5c(c4)OCO5)o3)cc(=O)oc2c1 [COUM-25, 4-(5-(3,4-(methylenedioxy)benzene)furan-2-yl)-7-methoxyl-coumarin] |  |  |  |  |  |  | > 5 | > 5 | > 5 | > 5 | > 5 | > 5 |
| COc1ccc2c(-c3ccc(-c4ccccc4OC)o3)cc(=O)oc2c1 [COUM-26, 4-(5-(2-methoxybenzene)furan-2-yl)-7-methoxyl-coumarin] |  |  |  |  |  |  | > 5 | > 5 | > 5 | > 5 | > 5 | > 5 |
| CCOC(=O)c1cccc(-c2ccc(-c3cc(=O)oc4cc(OC)ccc34)o2)c1 [COUM-27, 4-(5-(3-ethoxycarbonylbenzene)furan-2-yl)-7-methoxyl-coumarin] |  |  |  |  |  |  | > 5 | > 5 | > 5 | > 5 | > 5 | > 5 |
| COc1ccc2c(-c3ccc(-c4ccc(Cl)cc4)o3)cc(=O)oc2c1 [COUM-28, 4-(5-(4-chlorobenzene)furan-2-yl)-7-methoxyl-coumarin] |  |  |  |  |  |  | > 5 | > 5 | > 5 | > 5 | > 5 | > 5 |
| COc1cccc(-c2ccc(-c3cc(=O)oc4ccccc34)s2)c1 [COUM-29, 4-(5-(3-methoxyphenyl)thiophene-2-yl)-coumarin] |  |  |  |  |  |  | > 5 | > 5 | > 5 | > 5 | > 5 | > 5 |
| O=c1cc(-c2ccc(-c3ccccc3Cl)s2)c2ccccc2o1 [COUM-30, 4-(5-(2-chlorobenzene)thiophene-2-yl)-coumarin] |  |  |  |  |  |  | > 5 | > 5 | > 5 | > 5 | > 5 | > 5 |
